Experimental data taken from patent US6107273A, “Tumor necrosis factor inhibitors” (Thomas Jefferson University, priority 1995, dated 2000).
Values joined by “and” are separate entries in the source; they are usually repeats but may differ in a detail not shown here. Equal entries are not always repeated. Square brackets hold non-standard residues; d marks the D form. Ends that are not written are not given here. Pen = CC(C)(S)[C@H](N)C(=O)O; Aib = CC(C)(N)C(=O)O

Tested on: WEHI 164 cells
Assay: In vitro cytotoxicity assay: protection of WEHI 164 cells from TNF-α cytotoxicity (AlamarBlue)
Type: cell-based, mouse
Description: In vitro cytotoxicity assay Cell line
The murine fibrosarcoma cell line L929 is widely used for testing TNF-α cytotoxicity in vitro. In addition, other cell lines are available that are more sensitive, such as the WEHI 164, a mouse myosarcoma cell line. Both cell lines were initially screened for use in the following experiments and WEHI 164 cells were chosen for their higher sensitivity.
Cells are maintained in serum free medium Ultraculture (Biowhittaker) with the addition of 2 mM Glutamine. The assay is carried out in the same serum free medium.
In the cytotoxicity assay, a susceptible cell line (WEHI 164) is incubated in medium containing serial dilutions of TNF-α for a set time and the consequent cytotoxic activity, manifested as inhibition of cell growth and/or cell death, is evaluated by spectrophotometer measurements of vital dye uptake.
Peptide stock solutions are made in HBSS at the concentration of 1 mg/ml, sterilized by passage through a 0.20 μm×13 mm cellulose acetate filters (Corning). The solutions were used for no longer than 10 days. All the other dilutions needed for the test were prepared just before the assay in sterile manner using the medium Ultraculture.
WEHI 164 cells are taken from logarithmic growth and seeded in 96 well microtiter plates at the density of 2500 cells/well. The assay is performed 48 hours later, at a cell density of approximately 3000 cells/well. Cells are pre-incubated with serial dilutions of peptides for 30 minutes, then TNF-α is added to the wells and incubated for 16 hours at 37° C. Samples are repeated in triplicate.
Control wells for non treated cells contain medium only. A concentration curve of TNF-α is performed for every assay at concentrations ranging between 200 and 1 ng/ml. A control for full protection from TNF-α cytotoxicity is carried out by pre-incubating TNF-α with A2 antibody (Centocor, Malvern Pa.) for 30 minutes then adding it to the cells.
After 16 hour incubation, the vital dye AlamarBlue (Alamar Biosciences) is added in the amount equal to 10% final volume. The plates are returned to the incubator for 6-10 hours.
Absorbance is evaluated at 570 nm, subtracting the background absorbance measured at 595 nm in a BioRad microtiter plate reader.
Values are expressed as a percentage of cell survival, where the control samples (containing medium only) are referred to as 100%.

[1] = 25 μg/ml peptide, TNF 25 ng/ml, 16 h
[2] = 50 μg/ml peptide, TNF 25 pg/ml, 16 h
[3] = 100 μg/ml peptide, TNF 25 pg/ml, 16 h
[4] = 2.5 μg/ml peptide, TNF 5 ng/ml, 16 h
[5] = 25 μg/ml peptide, TNF 5 ng/ml, 16 h
[6] = 50 μg/ml peptide, TNF 25 ng/ml, 16 h
[7] = 100 μg/ml peptide, TNF 25 ng/ml, 16 h

Substance | % cell survival [2] [%] | % cell survival [3] [%] | % cell survival [6] [%] | also measured
CARDNQAC (cysteine pairing not given here) [Peptide 509] | – | – | – | % cell survival (2.5 μg/ml peptide, TNF 25 ng/ml, 16 h): 21 ± 5%; % cell survival [1]: 28.4%
CRRANA[dC] (cysteine pairing not given here) [Peptide 512] | 70.8 ± 6 | 65.6 ± 8 | – | –
CPETPEGAEAKPC (cysteine pairing not given here) [Peptide 506] | – | – | – | % cell survival [4]: 68%; % cell survival [5]: 88.1%
CPRETPEGAEAKPC (cysteine pairing not given here) [Peptide 505] | – | – | – | % cell survival (100 μg/ml peptide, 30 min pre-incubation, then TNF-α 16 h, TNF concentration not printed (table 1)): 62.7 ± 4% and 32.5 ± 3%
CSYQTKVC (cysteine pairing not given here) [Peptide 521] | 56.51 ± 3 | 65.26 ± 4 | – | –
CEGAEC (cysteine pairing not given here) [Peptide 561] | – | – | 92 ± 20 | % cell survival [7]: 90 ± 10%
[Pen]E[Aib]E[Pen] (cysteine pairing not given here) [Peptide 556] | – | – | 71 ± 14 | % cell survival [1]: 69 ± 18%
CRIAVSYQTKVC (cysteine pairing not given here) [Peptide 557] | – | – | 70 ± 3 | % cell survival [7]: 65 ± 4%
CSYQTKC (cysteine pairing not given here) [Peptide 522] | – | – | – | % cell survival [4]: 81%; % cell survival [5]: 111%
CPQAEGQLC (cysteine pairing not given here) [Peptide 510] | 59.3 ± 1 | 60.4 ± 3 | – | –
Pen-Thr-Pro-Glu-Gly-Ala-Glu-Ala-Pen ([Pen]TPEGAEA[Pen]; cysteine pairing not given here) [Peptide 562] | 25.2 ± 7 | 33.1 ± 7 | – | –
CIAVSYQTKC (cysteine pairing not given here) [Peptide 558] | – | – | 24 ± 8 | % cell survival [7]: 26 ± 7%
